Results reported in patent publication US8778966B2, “Quinolinone derivatives as PARP and tank inhibitors” (Janssen Pharmaceutica, NV, priority 2007, dated 2014).

Test system: HCT116 cells
Assay: Antiproliferative activity, Alamar Blue assay, HCT116 cells
Assay type: cell-based, human
Parameters: key to HCT116 antiproliferative activity pIC50: pIC50 = -log IC50 (IC50: conc. reducing growth to 50% of control)
Conditions: HCT116 cells
Procedure, shortened: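 HCT116 cells seeded, adhered 24 h, then exposed to compound for 4 days; Alamar Blue (resazurin) added for 4 h at 37 °C, fluorescence read at 540/590 nm. Viability as % of untreated control, triplicate wells; IC50 by probit analysis, reported as pIC50.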

HCT116 antiproliferative activity pIC50 | Structure (SMILES)
7.0 | CCc1cc2ccc(C(C)(C#N)Cc3nc(C#N)cc(OC)n3)cc2[nH]c1=O (single isomer, unassigned) [Compound 204]

Same assay, conditions: Homo sapiens, HCT-116, HCT116 cells, Alamar Blue; read-out: HCT116 antiproliferative activity pIC50 (converted)

IC50 [nM] | Structure (SMILES)
398 | CCc1cc2ccc([C@@](C)(C#N)CCOc3ccc(C#N)cc3)cc2[nH]c1=O (single isomer, unassigned) [Compound 273]
10000 | CCc1cc2ccc([C@@](C)(C#N)Cc3cccc(C#CCO)c3)cc2[nH]c1=O (single isomer, unassigned) [Compound 295]
10000 | CCc1cc2ccc([C@@](C)(C#N)Cc3cc(OC)nc(C)n3)cc2[nH]c1=O (single isomer, unassigned) [Compound 361]
1000 | CCc1cc2ccc([C@](C)(C#N)Cc3cc(OC)nc(C)n3)cc2[nH]c1=O (single isomer, unassigned) [Compound 362]
3980 | CCc1cc2ccc(C(C)(C#N)Cc3cccc(CCS(C)(=O)=O)c3)cc2[nH]c1=O (stereo not shown) [Compound 178]
2000 | Cc1cc2ccc(C(C)(C#N)Cc3cccc(C=Cc4ccccc4)c3)cc2[nH]c1=O (stereo not shown) [Compound 179]
631 | C#CCOc1cccc(CC(C)(C#N)c2ccc3cc(CC)c(=O)[nH]c3c2)c1 (stereo not shown) [Compound 196]
5010 | CCc1cc2ccc(C(C)(C#N)Cc3cccc(C#Cc4cncn4C)n3)cc2[nH]c1=O (stereo not shown) [Compound 217]
1000 | CCc1cc2ccc(C(C)(C#N)CN3CCN(c4ccccn4)CC3)cc2[nH]c1=O (stereo not shown) [Compound 233]
2000 | CCc1cc2ccc(C(C)(C#N)Cc3ccc(F)c(F)c3)cc2[nH]c1=O (stereo not shown) [Compound 281]
631 | CCc1cc2ccc(C(C)(C#N)Cc3cccc(/C=N/O)c3)cc2[nH]c1=O (stereo not shown) [Compound 299]
200 | CCc1cc2ccc(C(C)(C#N)Cc3nc(C#N)cc(OC)n3)cc2[nH]c1=O (stereo not shown) [Compound 313]
5010 | CCc1cc2ccc(C(C)(C#N)Cc3cc(N(C)C)nc(C#N)n3)cc2[nH]c1=O (stereo not shown) [Compound 317]
631 | CCc1cc2ccc(C(C)(C#N)Cc3nc(C#N)cc(N(C)C)n3)cc2[nH]c1=O (stereo not shown) [Compound 318]
2510 | CCc1cc2ccc(C(C)(C#N)Cc3cc(C#N)nc(C)n3)cc2[nH]c1=O (stereo not shown) [Compound 319]
398 | CCc1cc2ccc(C(C)(C#N)Cc3cc(N(C)C)nc(N(C)C)n3)cc2[nH]c1=O (stereo not shown) [Compound 320]
2000 | CCc1cc2ccc(C(C)(C#N)Cc3cc(N(C)C)nc(C)n3)cc2[nH]c1=O (stereo not shown) [Compound 322]
2000 | CCc1cc2ccc(C(C)(C#N)Cc3cccc(NC)n3)cc2[nH]c1=O (stereo not shown) [Compound 339]
794 | CCc1cc2ccc(C(C)(C#N)Cc3cc(OC)nc(OC)c3)cc2[nH]c1=O (stereo not shown) [Compound 350]
200 | CCc1cc2ccc(C(C)(C#N)Cc3nc(OC)cc(N(C)C)n3)cc2[nH]c1=O (stereo not shown) [Compound 355]
1000 | CCc1cc2ccc(C(C)(C#N)CN3CCN(c4ccc(C#N)cn4)CC3)cc2[nH]c1=O (stereo not shown) [Compound 377]

Further lines, the compound ahead of its results:

Structure (SMILES) | IC50 [nM]
CCc1cc2c(OC)cc(C(C)(C#N)Cc3nc(OC)cc(OC)n3)cc2[nH]c1=O (single isomer, unassigned) [Compound 230] | 1580
CCc1cc2ccc([C@](C)(C#N)CCOc3ccc(C#N)cc3)cc2[nH]c1=O (single isomer, unassigned) [Compound 275] | 10000
CCc1cc2ccc([C@](C)(C#N)Cc3cccc(/C=C/S(C)(=O)=O)c3)cc2[nH]c1=O (single isomer, unassigned) [Compound 291] | 200
CCc1cc2ccc([C@](C)(C#N)Cc3cccc(C#CCO)c3)cc2[nH]c1=O (single isomer, unassigned) [Compound 296] | 126
Cc1cc2ccc([C@@](C)(C#N)C3CCc4ccccc43)cc2[nH]c1=O (single isomer, unassigned) [Compound 385] | 3980
Cc1cc2ccc([C@](C)(C#N)C3CCc4ccccc43)cc2[nH]c1=O (single isomer, unassigned) [Compound 386] | 200
CCc1cc2ccc(C(C)(C#N)Cc3cccc(-c4ccc[nH]4)c3)cc2[nH]c1=O (stereo not shown) [Compound 176] | 5010
CCc1cc2ccc(C(C)(C#N)Cc3cccc(C(=N)NO)c3)cc2[nH]c1=O (stereo not shown) [Compound 186] | 3980
Cc1cc2ccc(C(C)(C#N)Cc3cccc(Oc4ccc(F)cc4)c3)cc2[nH]c1=O (stereo not shown) [Compound 192] | 631
CCc1cc2ccc(C(C)(C#N)Cc3cccc(OCCC#N)c3)cc2[nH]c1=O (stereo not shown) [Compound 195] | 251
CCc1cc2ccc(C(C)(C#N)COCc3ccccc3)cc2[nH]c1=O (stereo not shown) [Compound 197] | 2000
CCc1cc2ccc(C(C)(C#N)Cc3nc(Cl)cc(OC)n3)cc2[nH]c1=O (stereo not shown) [Compound 202] | 200
CCc1cc2ccc(C(C)(C#N)Cc3nc(N(C)C)cc(N(C)C)n3)cc2[nH]c1=O (stereo not shown) [Compound 205] | 631
CCc1cc2ccc(C(C)(C#N)Cc3cccc(N4CCC(N(C)C)C4)n3)cc2[nH]c1=O (stereo not shown) [Compound 209] | 2000
CCc1cc2ccc(C(C)(C#N)Cc3cccc(N(C)CCc4ccccc4)n3)cc2[nH]c1=O.Cl (stereo not shown) [Compound 220] | 2000
CCc1cc2c(OC)cc(C(C)(C#N)Cc3nc(OC)cc(OC)n3)cc2[nH]c1=O (stereo not shown) [Compound 229] | 2510
Cc1nc(-c2ccccc2)sc1CC(C)(C#N)c1ccc2cc(C)c(=O)[nH]c2c1 (stereo not shown) [Compound 235] | 1580
CCc1cc2ccc(C(C)(C#N)Cc3cccc4c3CCN4)cc2[nH]c1=O (stereo not shown) [Compound 237] | 2510
CCc1cc2ccc(C(C)(C#N)Cc3cccc(C(=O)OC(C)C)c3)cc2[nH]c1=O (stereo not shown) [Compound 255] | 158
Cc1cc2ccc(C(C)(C#N)Cc3cccc(I)c3)cc2[nH]c1=O (stereo not shown) [Compound 256] | 398

Structure (SMILES) | IC50 [nM]
CCc1cc2ccc(C(C)(C#N)Cc3cccc(NC)c3)cc2[nH]c1=O (stereo not shown) [Compound 257] | 631
CCc1cc2ccc(C(C)(C#N)Cc3cc(Br)cc(N(C)C)c3)cc2[nH]c1=O (stereo not shown) [Compound 260] | 158
Cc1cc2ccc(C(C)(C#N)Cc3cccc(OCC4CCOCC4)c3)cc2[nH]c1=O (stereo not shown) [Compound 261] | 5010
CCc1cc2ccc(C(C)(C#N)Cc3cc(F)ccc3F)cc2[nH]c1=O (stereo not shown) [Compound 280] | 794
CCc1cc2ccc(C(C)(C#N)Cc3cc(C(F)(F)F)ccc3F)cc2[nH]c1=O (stereo not shown) [Compound 283] | 794
CCOc1cccc(CC(C)(C#N)c2ccc3cc(CC)c(=O)[nH]c3c2)c1 (stereo not shown) [Compound 285] | 794
CCc1cc2ccc(C(C)(C#N)Cc3cccc(OC)c3F)cc2[nH]c1=O (stereo not shown) [Compound 286] | 5010
CCc1cc2ccc(C(C)(C#N)Cc3cc(C(C)C)ccc3OC)cc2[nH]c1=O (stereo not shown) [Compound 288] | 10000
CCc1cc2ccc(C(C)(C#N)Cc3cc(OC)c(OC)c(OC)c3)cc2[nH]c1=O (stereo not shown) [Compound 289] | 126
CCc1cc2ccc(C(C)(C#N)CN(C)Cc3ccc(C#N)cc3)cc2[nH]c1=O (stereo not shown) [Compound 300] | 631
CCc1cc2ccc(C(C)(C#N)CNCc3ccc(C#N)cc3)cc2[nH]c1=O (stereo not shown) [Compound 302] | 5010
Cc1cc2ccc(C(C)(C#N)Cc3cccc(Oc4ccccc4)c3)cc2[nH]c1=O (stereo not shown) [Compound 305] | 794
CCc1cc2ccc(C(C)(C#N)Cc3cc(Cl)nc(N(C)C)c3)cc2[nH]c1=O (stereo not shown) [Compound 323] | 631
CCc1cc2ccc(C(C)(C#N)Cc3cc(Cl)nc(OC)c3)cc2[nH]c1=O (stereo not shown) [Compound 351] | 398
CCc1cc2ccc(C(C)(C#N)Cc3cc(N(C)C)nc(OC)n3)cc2[nH]c1=O (stereo not shown) [Compound 354] | 3160
CCc1cc2ccc(C(C)(C#N)Cc3cc(Cl)nc(C)n3)cc2[nH]c1=O (stereo not shown) [Compound 365] | 631
CCc1cc2ccc(C(C)(C#N)CN3CCC(c4ccccc4)CC3)cc2[nH]c1=O (stereo not shown) [Compound 375] | 2000
CCc1cc2ccc(C(C)(C#N)Cc3cc(Br)cc4c3OCC4)cc2[nH]c1=O (stereo not shown) [Compound 378] | 501
CCc1cc2ccc(C(C)(C#N)Cc3cccc4[nH]ccc34)cc2[nH]c1=O (stereo not shown) [Compound 379] | 1260
Cc1cc2ccc([C@](C)(C#N)[C@H]3CCc4ccccc43)cc2[nH]c1=O [Compound 387] | 2510

Same assay, conditions: Homo sapiens, HCT-116, HCT116 cells; read-out: HCT116 antiproliferative activity pIC50 (converted)

IC50 [nM] | Structure (SMILES)
3980 | CCc1cc2ccc(C(C#N)(Cc3ccccc3)c3ccccc3)cc2[nH]c1=O (stereo not shown) [Compound 27]
1260 | CCc1cc2ccc(C(C#N)(Cc3ccccc3)C3CC3)cc2[nH]c1=O (stereo not shown) [Compound 29]
3160 | CCCC(C#N)(Cc1ccccc1)c1ccc2cc(CC)c(=O)[nH]c2c1 (stereo not shown) [Compound 31]
200 | CCc1cc2ccc(C(C)(C#N)Cc3cccc(/C=N/OC)c3)cc2[nH]c1=O (stereo not shown) [Compound 185]
794 | CCc1cc2ccc(C(C)(C#N)Cc3cc(C#N)nc(N(C)C)c3)cc2[nH]c1=O (stereo not shown) [Compound 325]

The remaining lines, values behind:

Structure (SMILES) | IC50 [nM]
CCc1cc2ccc(C(C)(C#N)Cc3cccc(OCCCN4CCNCC4)c3)cc2[nH]c1=O (stereo not shown) [Compound 25] | 3160
CCc1cc2ccc(C(C#N)(Cc3ccccc3)c3ccc(C#N)cc3)cc2[nH]c1=O (stereo not shown) [Compound 26] | 2510
CCc1cc2ccc(C(C#N)(Cc3ccccc3)C(C)C)cc2[nH]c1=O (stereo not shown) [Compound 30] | 1260
CCc1cc2ccc(C(C)(C#N)Cc3cc(OC)ccc3F)cc2[nH]c1=O (stereo not shown) [Compound 171] | 126
CCc1cc2ccc(C(C)(C#N)Cc3cccc(OCCCC#N)c3)cc2[nH]c1=O (stereo not shown) [Compound 194] | 501
CCc1cc2ccc(C(C)(C#N)Cc3cccc(OCCS(C)(=O)=O)c3)cc2[nH]c1=O (stereo not shown) [Compound 201] | 2510
CCc1cc2ccc(C(C)(C#N)Cc3cccc(C#N)[n+]3[O-])cc2[nH]c1=O (stereo not shown) [Compound 228] | 1580
CCc1cc2ccc(C(C)(C#N)Cc3cc(C#N)nc(OC)c3)cc2[nH]c1=O (stereo not shown) [Compound 314] | 631
CCc1cc2ccc(C(C)(C#N)Cc3c4ccccc4nn3C)cc2[nH]c1=O (stereo not shown) [Compound 347] | 3160
